Marks after values point to notes of the source that are not given here.
Tested on: female rats
Experiment: Plasma metabolite profiling (GC-MS, LC-MS, SPE-LC-MS) in female rats dosed once daily over 28 days (OECD 407)
Type: in vivo, rat
Conditions: high dose
In short: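 Polar and lipid fractions profiled by GC-MS and LC-MS/MRM, steroids by online SPE-LC-MS; pool-normalized data compared to controls by Welch test as treatment ratios and p-values.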

SMILES: C[C@@H]1CC2=CC(=O)CC[C@@H]2[C@H]2CC[C@@]3(C)[C@@H](CC[C@]3(C)O)[C@@H]21 [Mibolerone]
- 3-Hydroxybutyrate (f7, female rats, Table 15a): 1.36 *
- DAG (C18:1,C18:2) (f7, female rats, Table 15a): 0.43
- Glutamate (f7, female rats, Table 15a): 1.66 *
- Glycine (f7, female rats, Table 15a): 1.19 *
- Phosphatidylcholine (C16:0,C20:5) (f7, female rats, Table 15a): 0.56
- TAG (C16:0,C16:1) (f7, female rats, Table 15a): 2.26
- TAG (C16:0,C18:1,C18:3) (f7, female rats, Table 15a): 1.22
- TAG (C16:0,C18:2) (f7, female rats, Table 15a): 0.87
- TAG (C18:1,C18:2) (f7, female rats, Table 15a): 0.77
- TAG (C18:2,C18:2) (f7, female rats, Table 15a): 0.9
- TAG (C18:3, C18:2, C18:1) (f7, female rats, Table 15a): 0.99
- TAG (DAG-Fragment) (f7, female rats, Table 15a): 0.95
- TAG No 059 (f7, female rats, Table 15a): 1.08 *
- Threonic acid (f7, female rats, Table 15a): 1.15 *
- trans-4-Hydroxyproline (f7, female rats, Table 15a): 1.8 *
- Androstenedione (f7, female rats, Table 15b): 0.14 *
- Arginine (f7, female rats, Table 15b): 0.85 *
- Campesterol (f7, female rats, Table 15b): 0.16
- Ceramide (d18:1,C24:0) (f7, female rats, Table 15b): 0.12 *
- Lactate (f7, female rats, Table 15b): 0.62 *
- Lysine (f7, female rats, Table 15b): 0.68 *
- Metanephrine (f7, female rats, Table 15b): 0.62 *
- Normetanephrine (f7, female rats, Table 15b): 1.15
- Phosphatidylcholine (C16:0,C20:5) (f7, female rats, Table 15b): 0.56 *
- Phosphatidylcholine (C16:0,C22:6) (f7, female rats, Table 15b): 0.18 *
- Phosphatidylcholine (C18:0, C20:3) (f7, female rats, Table 15b): 0.2 *
- Phosphatidylcholine (C18:0,C18:1) (f7, female rats, Table 15b): 0.21 *
- Progesterone (f7, female rats, Table 15b): 0.62
- Pyruvate (f7, female rats, Table 15b): 0.75 *
- Sphingomyelin (d18:1,C23:0) (f7, female rats, Table 15b): 0.06 *
- Sphingomyelin (d18:1,C24:0) (f7, female rats, Table 15b): 0.11 *
- Urea (f7, female rats, Table 15b): 0.65 *
- 3-Hydroxybutyrate (f14, female rats, Table 15a): 1.73 *
- DAG (C18:1,C18:2) (f14, female rats, Table 15a): 2.88 *
- Glutamate (f14, female rats, Table 15a): 1.67 *
- Glycine (f14, female rats, Table 15a): 1.22 *
- Phosphatidylcholine (C16:0,C20:5) (f14, female rats, Table 15a): 1.54 *
- TAG (C16:0,C16:1) (f14, female rats, Table 15a): 12.22 *
- TAG (C16:0,C18:1,C18:3) (f14, female rats, Table 15a): 8.88 *
- TAG (C16:0,C18:2) (f14, female rats, Table 15a): 6.82 *
- TAG (C18:1,C18:2) (f14, female rats, Table 15a): 8.37 *
- TAG (C18:2,C18:2) (f14, female rats, Table 15a): 6.69 *
- TAG (C18:3, C18:2, C18:1) (f14, female rats, Table 15a): 5.98 *
- TAG (DAG-Fragment) (f14, female rats, Table 15a): 7.86 *
- TAG No 059 (f14, female rats, Table 15a): 4.67 *
- Threonic acid (f14, female rats, Table 15a): 1.18 *
- trans-4-Hydroxyproline (f14, female rats, Table 15a): 2.44 *
- Androstenedione (f14, female rats, Table 15b): 0.11 *
- Arginine (f14, female rats, Table 15b): 0.98 *
- Campesterol (f14, female rats, Table 15b): 0.89
- Ceramide (d18:1,C24:0) (f14, female rats, Table 15b): 2.02 *
- Lactate (f14, female rats, Table 15b): 0.74 *
- Lysine (f14, female rats, Table 15b): 0.63 *
- Metanephrine (f14, female rats, Table 15b): 0.72 *
- Normetanephrine (f14, female rats, Table 15b): 0.66 *
- Phosphatidylcholine (C16:0,C20:5) (f14, female rats, Table 15b): 1.54
- Phosphatidylcholine (C16:0,C22:6) (f14, female rats, Table 15b): 0.84 *
- Phosphatidylcholine (C18:0, C20:3) (f14, female rats, Table 15b): 0.98
- Phosphatidylcholine (C18:0,C18:1) (f14, female rats, Table 15b): 0.93
- Progesterone (f14, female rats, Table 15b): 0.13 *
- Pyruvate (f14, female rats, Table 15b): 0.83 *
- Sphingomyelin (d18:1,C23:0) (f14, female rats, Table 15b): 1.26
- Sphingomyelin (d18:1,C24:0) (f14, female rats, Table 15b): 1.33 *
- Urea (f14, female rats, Table 15b): 0.48 *
- 3-Hydroxybutyrate (f28, female rats, Table 15a): 1.06
- DAG (C18:1,C18:2) (f28, female rats, Table 15a): 2.27 *
- Glutamate (f28, female rats, Table 15a): 1.73 *
- Glycine (f28, female rats, Table 15a): 1.18 *
- Phosphatidylcholine (C16:0,C20:5) (f28, female rats, Table 15a): 1.32 *
- TAG (C16:0,C16:1) (f28, female rats, Table 15a): 5.83 *
- TAG (C16:0,C18:1,C18:3) (f28, female rats, Table 15a): 6.23 *
- TAG (C16:0,C18:2) (f28, female rats, Table 15a): 4.89 *
- TAG (C18:1,C18:2) (f28, female rats, Table 15a): 4.95 *
- TAG (C18:2,C18:2) (f28, female rats, Table 15a): 4.92 *
- TAG (C18:3, C18:2, C18:1) (f28, female rats, Table 15a): 4.74 *
- TAG (DAG-Fragment) (f28, female rats, Table 15a): 5.74 *
- TAG No 059 (f28, female rats, Table 15a): 3.5 *
- Threonic acid (f28, female rats, Table 15a): 1.94 *
- trans-4-Hydroxyproline (f28, female rats, Table 15a): 2 *
- Androstenedione (f28, female rats, Table 15b): 0.07 *
- Arginine (f28, female rats, Table 15b): 0.83 *
- Campesterol (f28, female rats, Table 15b): 0.54 *
- Ceramide (d18:1,C24:0) (f28, female rats, Table 15b): 1.53 *
- Lactate (f28, female rats, Table 15b): 0.73 *
- Lysine (f28, female rats, Table 15b): 0.57 *
- Metanephrine (f28, female rats, Table 15b): 0.66 *
- Normetanephrine (f28, female rats, Table 15b): 0.78 *
- Phosphatidylcholine (C16:0,C20:5) (f28, female rats, Table 15b): 1.32
- Phosphatidylcholine (C16:0,C22:6) (f28, female rats, Table 15b): 0.74 *
- Phosphatidylcholine (C18:0, C20:3) (f28, female rats, Table 15b): 0.91 *
- Phosphatidylcholine (C18:0,C18:1) (f28, female rats, Table 15b): 0.86
- Progesterone (f28, female rats, Table 15b): 0.06 *
- Pyruvate (f28, female rats, Table 15b): 0.65 *
- Sphingomyelin (d18:1,C23:0) (f28, female rats, Table 15b): 0.63 *
- Sphingomyelin (d18:1,C24:0) (f28, female rats, Table 15b): 1.05
- Urea (f28, female rats, Table 15b): 0.88 *

From patent US20150010928A1, “MEANS AND METHODS FOR ASSESSING AN ENDOCRINE DISEASE OR DISORDER” (priority 2012, published 2015)
